Reference: PubChem BioAssay (NCI)
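Cultured in 96-well plates, cells were exposed to test compound for 48 hours across five concentrations. GI50 = concentration required for 50% inhibition of growth. At the TGI there is no net growth.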

Experiments:
Test in all cases: growth of human tumour cells (NCI), 48 h
SK-MEL-2 melanoma = tested on: SK-MEL-2 melanoma
OVCAR-5 ovarian = tested on: OVCAR-5 ovarian
KM12 colon = tested on: KM12 colon
MCF7 breast = tested on: MCF7 breast
UO-31 renal = tested on: UO-31 renal
SK-OV-3 ovarian = tested on: SK-OV-3 ovarian
SK-MEL-28 melanoma = tested on: SK-MEL-28 melanoma
OVCAR-8 ovarian = tested on: OVCAR-8 ovarian
HT29 colon = tested on: HT29 colon
HOP-62 NSCLC = tested on: HOP-62 NSCLC
RPMI-8226 leukemia = tested on: RPMI-8226 leukemia
SK-MEL-5 melanoma = tested on: SK-MEL-5 melanoma
HS 578T breast = tested on: HS 578T breast
MDA-MB-435 = tested on: MDA-MB-435
BT-549 breast = tested on: BT-549 breast
A498 renal = tested on: A498 renal
PC-3 prostate = tested on: PC-3 prostate
NCI-H522 lung = tested on: NCI-H522 lung
K-562 leukemia = tested on: K-562 leukemia
MOLT-4 leukemia = tested on: MOLT-4 leukemia
MALME-3M melanoma = tested on: MALME-3M melanoma
LOX IMVI melanoma = tested on: LOX IMVI melanoma
HCT-116 colon = tested on: HCT-116 colon
NCI/ADR-RES ovarian = tested on: NCI/ADR-RES ovarian
DU-145 prostate = tested on: DU-145 prostate
U251 CNS = tested on: U251 CNS
HCC-2998 colon = tested on: HCC-2998 colon
TK-10 renal = tested on: TK-10 renal
NCI-H460 lung = tested on: NCI-H460 lung
UACC-62 melanoma = tested on: UACC-62 melanoma
SF-295 CNS = tested on: SF-295 CNS
SNB-75 CNS = tested on: SNB-75 CNS
SNB-19 CNS = tested on: SNB-19 CNS
IGROV1 ovarian = tested on: IGROV1 ovarian
NCI-H226 lung = tested on: NCI-H226 lung
UACC-257 melanoma = tested on: UACC-257 melanoma
HCT-15 colon = tested on: HCT-15 colon
CCRF-CEM leukemia = tested on: CCRF-CEM leukemia
HOP-92 NSCLC = tested on: HOP-92 NSCLC
ACHN renal = tested on: ACHN renal
OVCAR-4 ovarian = tested on: OVCAR-4 ovarian
SW-620 colon = tested on: SW-620 colon
786-0 renal = tested on: 786-0 renal
A549 NSCLC = tested on: A549 NSCLC
RXF 393 renal = tested on: RXF 393 renal
SF-539 CNS = tested on: SF-539 CNS
OVCAR-3 ovarian = tested on: OVCAR-3 ovarian
HL-60(TB) leukemia = tested on: HL-60(TB) leukemia
T-47D breast = tested on: T-47D breast
MDA-MB-231 breast = tested on: MDA-MB-231 breast
SN12C renal = tested on: SN12C renal
COLO 205 colon = tested on: COLO 205 colon
EKVX NSCLC = tested on: EKVX NSCLC
M14 melanoma = tested on: M14 melanoma
SF-268 CNS = tested on: SF-268 CNS

## CN1CCN(c2ccc(N3Cc4ccccc4OC4=C3C(=O)c3c(O)ccc(O)c3C4=O)cn2)CC1
SK-MEL-2 melanoma
  GI50: 738 nM
  TGI: 2230 nM
OVCAR-5 ovarian
  GI50: 692 nM
  TGI: 1950 nM
KM12 colon
  GI50: 1180 nM
  TGI: 3600 nM
MCF7 breast
  GI50: 149 nM
  TGI: 585 nM
UO-31 renal
  GI50: 163 nM
  TGI: 557 nM
SK-OV-3 ovarian
  GI50: 2920 nM
  TGI: 11400 nM
SK-MEL-28 melanoma
  GI50: 282 nM
  TGI: 762 nM
OVCAR-8 ovarian
  GI50: 370 nM
  TGI: 4570 nM
HT29 colon
  GI50: 209 nM
  TGI: 562 nM
HOP-62 NSCLC
  GI50: 1550 nM
  TGI: 4880 nM
RPMI-8226 leukemia
  GI50: 260 nM
  TGI: 901 nM
SK-MEL-5 melanoma
  GI50: 1270 nM
  TGI: 2750 nM
HS 578T breast
  GI50: 876 nM
  TGI: > 100000 nM
MDA-MB-435
  GI50: 234 nM
  TGI: 575 nM
BT-549 breast
  GI50: 251 nM
  TGI: 723 nM
A498 renal
  GI50: 2150 nM
  TGI: 4940 nM
PC-3 prostate
  GI50: 385 nM
  TGI: 1630 nM
NCI-H522 lung
  GI50: 32.2 nM
  TGI: 134 nM
K-562 leukemia
  GI50: 71.3 nM
  TGI: 2530 nM
MOLT-4 leukemia
  GI50: 89.5 nM
  TGI: 5380 nM
MALME-3M melanoma
  GI50: 89.3 nM
  TGI: 298 nM
LOX IMVI melanoma
  GI50: 215 nM
  TGI: 618 nM
HCT-116 colon
  GI50: 113 nM
  TGI: 326 nM
NCI/ADR-RES ovarian
  GI50: 403 nM
  TGI: > 100000 nM
DU-145 prostate
  GI50: 360 nM
  TGI: 1290 nM
U251 CNS
  GI50: 397 nM
  TGI: 1590 nM
HCC-2998 colon
  GI50: 1280 nM
  TGI: 2780 nM
TK-10 renal
  GI50: 260 nM
  TGI: 825 nM
NCI-H460 lung
  GI50: 1170 nM
  TGI: 3830 nM
UACC-62 melanoma
  GI50: 330 nM
  TGI: 1040 nM
SF-295 CNS
  GI50: 1870 nM
  TGI: 5000 nM
SNB-75 CNS
  GI50: 907 nM
  TGI: 5400 nM
SNB-19 CNS
  GI50: 742 nM
  TGI: 2570 nM
IGROV1 ovarian
  GI50: 272 nM
  TGI: 1010 nM
NCI-H226 lung
  GI50: 2260 nM
  TGI: 12000 nM
UACC-257 melanoma
  GI50: 426 nM
  TGI: 1170 nM
HCT-15 colon
  GI50: 186 nM
  TGI: 638 nM
CCRF-CEM leukemia
  GI50: 97.2 nM
  TGI: > 33500 nM
HOP-92 NSCLC
  GI50: 230 nM
  TGI: 499 nM
ACHN renal
  GI50: 57.4 nM
  TGI: 203 nM
OVCAR-4 ovarian
  GI50: 264 nM
  TGI: 855 nM
SW-620 colon
  GI50: 196 nM
  TGI: 635 nM
786-0 renal
  GI50: 191 nM
  TGI: 404 nM
A549 NSCLC
  GI50: 2180 nM
  TGI: 6730 nM
RXF 393 renal
  GI50: 164 nM
  TGI: 346 nM
SF-539 CNS
  GI50: 233 nM
  TGI: 595 nM
OVCAR-3 ovarian
  GI50: 167 nM
  TGI: 469 nM
HL-60(TB) leukemia
  GI50: 135 nM
  TGI: 445 nM
T-47D breast
  GI50: 184 nM
  TGI: 706 nM
MDA-MB-231 breast
  GI50: 275 nM
  TGI: 706 nM
SN12C renal
  GI50: 316 nM
  TGI: 1100 nM
COLO 205 colon
  GI50: 126 nM
  TGI: 302 nM
EKVX NSCLC
  GI50: 244 nM
  TGI: 1240 nM
M14 melanoma
  GI50: 244 nM
  TGI: 651 nM
SF-268 CNS
  GI50: 580 nM
  TGI: 2430 nM
